Measurements reported in patent publication US20230270713A1, “Administration of Resiniferatoxin For Treatment of Bladder Pain or Bladder Cancer” (Sorrento Therapeutics, Inc., priority 2020, published 2023).

Assays:
[1] = test system: cats with FIC (Feline Idiopathic Cystitis); assay: VSOM in cats with Feline Idiopathic Cystitis; format: in vivo, cat; conditions: for VSOM treatment failure, number of cats / VSOM treatment failure, percent of cats: Day 28 vs Day 0
[2] = test system: dogs with bladder transitional cell carcinoma; assay: Change in lower urinary tract signs in dogs with bladder TCC (Example F); format: in vivo, dog; conditions: for Improvement of at Least 1 Score, dogs n/N / Improvement of at Least 1 Score, percent of dogs / Improvement of at Least 2 Scores, dogs n/N / Improvement of at Least 2 Scores, percent of dogs / Improvement in at least 1 score (lower urinary tract signs), dogs n/N / Improvement in at least 1 score, percent of dogs / Improvement in at least 2 scores (lower urinary tract signs), dogs n/N / Improvement in at least 2 scores, percent of dogs: dogs with bladder TCC; for Improvement in at least 1 score (lower urinary tract signs), dogs n/N / Improvement in at least 1 score, percent of dogs / Improvement in at least 2 scores (lower urinary tract signs), dogs n/N / Improvement in at least 2 scores, percent of dogs: all RTX doses (25-100 μg)
Description: Pre-treatment with diphenhydramine HCl intramuscular (2 mg/kg) was administered 30-45 minutes prior to RTX administration. Enrolled dogs were anesthetized and were monitored by auscultation and chest movement observation. Heart rate and oxygenation were monitored using a pulse oximeter throughout the duration of anesthesia. Blood pressure was monitored. Body temperature was maintained using a heated water blanket or equivalent thermal barrier (e.g., Vetko). Lactated Ringers Solution (LRS), or other medically appropriate fluid therapy, were used to maintain adequate hydration (approximately 2 mL/kg/hr intravenous (IV)) and a fluid bolus of LRS (2-5 mL/kg IV) as needed.
RTX was administered as a one-time treatment into the bladder on Day 0 with the option of repeating RTX at a future study day. A Foley urinary catheter was placed using a sterile standard technique. An abdominal ultrasound was concurrently performed to ensure that the tip of the catheter was in the bladder lumen. Urine was removed using a catheter tipped syringe.
RTX was diluted in 0.9% NaCl and then infused into the bladder. The catheter was then flushed with 5-6 mL of 0.9% NaCl to ensure the entire IVP volume was administered. The Foley catheter was capped and remained in place for a period of 30 minutes post-infusion. The bladder was then emptied prior to removal of the Foley catheter. The timing of recovery was managed on an individual basis, but it was recommended to initiate recovery approximately 10 minutes after RTX infusion.
RTX total dose ranged from 25-100 μg (1.17-5.21 μg/kg). RTX was instilled at concentration of 1.0 μg/mL 2.0 μg/mL or 2.5 μg/mL.
Primary effectiveness variables: Evaluations of lower urinary tract signs, as reported by the owner, were used as the primary effectiveness endpoint for the study. The character of urination, frequency of urination (day), frequency of urination (night) and blood in urine (Knapp, 2010) were monitored. Blood in urine was assessed by owner through daily collection of first morning sample and the owner completed the “Owner urine collection log.” Comparisons were made for each parameter between Day 0 and subsequent study visits on Days 7 (±2), 14 (±2), 28 (±2), 56 (±2) and 84 (±2). Treatment success was defined as at least one grade improvement for each parameter.
At each study visit, the investigator graded lower urinary tract signs with input from the owner. Improvement in 1 or 2 grades are summarized by total RTX dose in Table 16 and then comparing those dogs receiving an RTX dose <3 μg/kg and 3 μg/kg in Table 17.

[3] = Adverse events in dogs with bladder cancer (Example D); format: in vivo, dog
Description: Dogs with bladder cancer were treated with RTX as follows. Under general anesthesia, RTX was infused directly into the bladder using a foley catheter. RTX remained in the bladder for 30 minutes before removal.

[4] = 6.25 μg (0.25 μg/mL), Day 0, n 6
[5] = 6.25 μg (0.25 μg/mL), Day 28, n 6
[6] = 12.5 μg (0.5 μg/mL), Day 0, n 6
[7] = 12.5 μg (0.5 μg/mL), Day 28, n 5
[8] = 12.5 μg (1.25 μg/mL), Day 0, n 6
[9] = 12.5 μg (1.25 μg/mL), Day 28, n 6
[10] = dogs with bladder TCC evaluable at Days 14-84

## C=C(C)[C@]12C[C@@H](C)[C@@]34O[C@](Cc5ccccc5)(O[C@@H]1[C@@H]3C=C(COC(=O)Cc1ccc(O)c(OC)c1)C[C@]1(O)C(=O)C(C)=C[C@@H]41)O2 [RTX, resiniferatoxin]
[1]; [4]
  VSOM, Maximum: 12.0
  VSOM, Mean: 10.00
  VSOM, Median: 10.00
  VSOM, Minimum: 8.0
[1]; [5]
  VSOM, Maximum: 10.0
  VSOM, Mean: 6.00
  VSOM, Median: 6.50
  VSOM, Minimum: 1.0
[1]; [6]
  VSOM, Maximum: 12.0
  VSOM, Mean: 9.67
  VSOM, Median: 9.50
  VSOM, Minimum: 8.0
[1]; [7]
  VSOM, Maximum: 4.0
  VSOM, Mean: 1.60
  VSOM, Median: 1.00
  VSOM, Minimum: 0.0
[1]; [8]
  VSOM, Maximum: 10.0
  VSOM, Mean: 9.83
  VSOM, Median: 10.00
  VSOM, Minimum: 9.0
[1]; [9]
  VSOM, Maximum: 6.0
  VSOM, Mean: 3.83
  VSOM, Median: 4.00
  VSOM, Minimum: 2.0
[1]; 25 μg (1 μg/mL), Day 0, n 6
  VSOM, Mean: 10.00
  VSOM, Median: 10.00
  VSOM, Minimum: 9.0
[1]; 25 μg (1 μg/mL), Day 28, n 5
  VSOM, Maximum: 4.0
  VSOM, Mean: 1.80
  VSOM, Median: 1.00
[1]; Cohort 1 25 μg/25 mL
  VSOM treatment failure, number of cats: 0 n
  VSOM treatment failure, percent of cats: 0.0%
[1]; Cohort 2 6.25 μg/25 mL
  VSOM treatment failure, number of cats: 3 n
  VSOM treatment failure, percent of cats: 50.0%
[1]; Cohort 3 12.5 μg/25 mL
  VSOM treatment failure, number of cats: 0 n
  VSOM treatment failure, percent of cats: 0.0%
[1]; Cohort 4 12.5 μg/10 mL
  VSOM treatment failure, number of cats: 2 n
  VSOM treatment failure, percent of cats: 33.3%
[1]; Overall (Cohorts 1-4)
  VSOM treatment failure, percent of cats: (22.8%)
[2]; [10]
  dogs with improvement in at least 1 urinary symptom grade at each visit: more than 50%
  dogs with improvement in at least 2 grades at each visit: more than 40%
[2]; RTX <3 μg/kg, Day 7
  Improvement of at Least 1 Score, dogs n/N: 4/7
  Improvement of at Least 1 Score, percent of dogs: (57.1%)
  Improvement of at Least 2 Scores, dogs n/N: 2/7
  Improvement of at Least 2 Scores, percent of dogs: (28.6%)
[2]; RTX <3 μg/kg, Day 14
  Improvement of at Least 1 Score, dogs n/N: 5/7
  Improvement of at Least 1 Score, percent of dogs: (71.4%)
  Improvement of at Least 2 Scores, dogs n/N: 3/7
  Improvement of at Least 2 Scores, percent of dogs: (42.9%)
[2]; RTX <3 μg/kg, Day 28
  Improvement of at Least 1 Score, dogs n/N: 4/5
  Improvement of at Least 1 Score, percent of dogs: (80.0%)
  Improvement of at Least 2 Scores, dogs n/N: 3/5
  Improvement of at Least 2 Scores, percent of dogs: (60.0%)
[2]; RTX <3 μg/kg, Day 56
  Improvement of at Least 1 Score, dogs n/N: 4/5
  Improvement of at Least 1 Score, percent of dogs: (80.0%)
  Improvement of at Least 2 Scores, dogs n/N: 3/5
  Improvement of at Least 2 Scores, percent of dogs: (60.0%)
[2]; RTX <3 μg/kg, Day 84
  Improvement of at Least 1 Score, dogs n/N: 2/2
  Improvement of at Least 1 Score, percent of dogs: (100.0%)
  Improvement of at Least 2 Scores, dogs n/N: 2/2
  Improvement of at Least 2 Scores, percent of dogs: (100.0%)
[2]; RTX >= 3 μg/kg, Day 7
  Improvement of at Least 1 Score, dogs n/N: 3/7
  Improvement of at Least 1 Score, percent of dogs: (42.9%)
  Improvement of at Least 2 Scores, dogs n/N: 2/7
  Improvement of at Least 2 Scores, percent of dogs: (28.6%)
[2]; RTX >= 3 μg/kg, Day 14
  Improvement of at Least 1 Score, dogs n/N: 5/7
  Improvement of at Least 1 Score, percent of dogs: (71.4%)
  Improvement of at Least 2 Scores, dogs n/N: 3/7
  Improvement of at Least 2 Scores, percent of dogs: (42.9%)
[2]; RTX >= 3 μg/kg, Day 28
  Improvement of at Least 1 Score, dogs n/N: 4/6
  Improvement of at Least 1 Score, percent of dogs: (66.7%)
  Improvement of at Least 2 Scores, dogs n/N: 2/6
  Improvement of at Least 2 Scores, percent of dogs: (33.3%)
[2]; RTX >= 3 μg/kg, Day 56
  Improvement of at Least 1 Score, dogs n/N: 3/5
  Improvement of at Least 1 Score, percent of dogs: (60.0%)
  Improvement of at Least 2 Scores, dogs n/N: 2/5
  Improvement of at Least 2 Scores, percent of dogs: (40.0%)
[2]; RTX >= 3 μg/kg, Day 84
  Improvement of at Least 1 Score, dogs n/N: 2/5
  Improvement of at Least 1 Score, percent of dogs: 40.0%
  Improvement of at Least 2 Scores, dogs n/N: 1/5
  Improvement of at Least 2 Scores, percent of dogs: 20.0%
[2]; Day 14
  Improvement in at least 1 score (lower urinary tract signs), dogs n/N: 10/14
  Improvement in at least 1 score, percent of dogs: 71.4%
  Improvement in at least 2 scores (lower urinary tract signs), dogs n/N: 7/14
  Improvement in at least 2 scores, percent of dogs: 50.0%
[2]; Day 28
  Improvement in at least 1 score (lower urinary tract signs), dogs n/N: 8/11
  Improvement in at least 1 score, percent of dogs: 72.7%
  Improvement in at least 2 scores (lower urinary tract signs), dogs n/N: 5/11
  Improvement in at least 2 scores, percent of dogs: 45.5%
[2]; Day 56
  Improvement in at least 1 score (lower urinary tract signs), dogs n/N: 7/10
  Improvement in at least 1 score, percent of dogs: 70.0%
  Improvement in at least 2 scores (lower urinary tract signs), dogs n/N: 5/10
  Improvement in at least 2 scores, percent of dogs: 50.0%
[2]; Day 84
  Improvement in at least 1 score (lower urinary tract signs), dogs n/N: 4/7
  Improvement in at least 1 score, percent of dogs: 57.1%
  Improvement in at least 2 scores (lower urinary tract signs), dogs n/N: 3/7
  Improvement in at least 2 scores, percent of dogs: 42.9%
[2]; of the 6 dogs with bladder TCC that received a 2nd RTX administration
  dogs showing improved urine scores after a 2nd RTX administration: 1 dog
[3]; Case 03-01, 25 ug (2.8 ug/kg), Day 0
  Adverse events considered possibly attributable to RTX: Bladder spasm, urinating around catheter (Grade 1)
[3]; Case 03-02, 50 ug (2.6 ug/kg)
  Adverse events considered possibly attributable to RTX: none
[3]; Case 41-02, 50 ug (1.3 ug/kg) dosed twice, Day 1
  Adverse events considered possibly attributable to RTX: crying out after urination (Grade 1)
[3]; Case 47-02, 50 ug (2.0 ug/kg), Day 0
  Adverse events considered possibly attributable to RTX: diarrhea, vomiting, hyperoxia (Grade 1)
[3]; dogs with bladder cancer
  dose-limiting toxicity: No dose-limiting toxicity was observed
[3]; dogs with bladder cancer, 25-100 ug intravesical
  adverse events: minimal, mild, and transient
[3]; dogs with bladder cancer, all adverse events
  grade of adverse events: grade 1
[3]; dogs with bladder cancer, all tested doses incl. maximum 50 ug or 2.8 ug/kg dosed twice 28 days apart
  Tolerability: tolerated at all tested doses
